Data as given in PubChem BioAssay AID248 (DTP/NCI, 2004).
Several values for one entry are separate records, joined by “and”; a condition that tells them apart may be missing. Equal values may be shown once. Inconclusive results and toxic doses are left out.

Test system: L1210 leukemia ip in BDF1 mice, survival T/C
Experiment: NCI In Vivo Anticancer Drug Screen. Data for tumor model L1210 Leukemia (intraperitoneal) in B6D2F1 (BDF1) mice
Conditions: endpoint: mean survival time, higher = longer survival
In short: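 Tumor cells were implanted, animals were treated, and survival was followed. The result divides the treated measurement by the vehicle-control measurement.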

[1] = dose: 100.0 mg/kg/injection, schedule: Q04DX003 (ip), vehicle: saline with Tween-80
[2] = dose: 200.0 mg/kg/injection, schedule: Q04DX003 (ip), vehicle: saline with Tween-80
[3] = dose: 400.0 mg/kg/injection, schedule: Q04DX003 (ip), vehicle: saline with Tween-80
[4] = dose: 75.0 mg/kg/injection, schedule: Q01DX001 (ip), vehicle: carboxymethylcellulose (CMC)
[5] = dose: 150.0 mg/kg/injection, schedule: Q01DX001 (ip), vehicle: carboxymethylcellulose (CMC)
[6] = dose: 100.0 mg/kg/injection, schedule: Q04DX003 (ip), vehicle: Klucel (hydroxypropylcellulose) (HPC)
[7] = dose: 200.0 mg/kg/injection, schedule: Q04DX003 (ip), vehicle: Klucel (hydroxypropylcellulose) (HPC)
[8] = dose: 400.0 mg/kg/injection, schedule: Q04DX003 (ip), vehicle: Klucel (hydroxypropylcellulose) (HPC)
[9] = dose: 100.0 mg/kg/injection, schedule: Q04DX003 (ip), vehicle: saline
[10] = dose: 200.0 mg/kg/injection, schedule: Q04DX003 (ip), vehicle: saline
[11] = dose: 100.0 mg/kg/injection, schedule: Q01DX009 (ip), vehicle: saline with Tween-80
[12] = dose: 200.0 mg/kg/injection, schedule: Q01DX009 (ip), vehicle: saline with Tween-80

Question: For `Brc1ccccc1C=C1c2ccccc2-c2ccccc21`, which T/C [1] is on record?
Answer: 102 % of control

Question: What about the T/C [2] of the same compound?
Answer: 101 % of control

Question: What about the T/C [3] of the same compound?
Answer: 96 % of control

Question: For `O=C(NC(=S)Nc1ccccc1)c1cccc(Cl)c1`, which T/C [4] is on record?
Answer: 95 % of control

Question: What about the T/C [5] of the same compound?
Answer: 96 % of control

Question: What does the source list for `CC12C(=O)OC(=O)C1C1C=CC2CC1` (centres undefined)?
Answer: T/C [1]: 101 % of control; T/C [2]: 98 % of control; T/C [3]: 101 % of control

Question: How did the T/C (dose: 100.0 mg/kg/injection, schedule: Q01DX001 (ip), vehicle: carboxymethylcellulose (CMC)) turn out when `COC(=O)c1ccc(O)c(C(=O)OC)c1` was run?
Answer: 92 % of control

Question: What about the T/C (dose: 200.0 mg/kg/injection, schedule: Q01DX001 (ip), vehicle: carboxymethylcellulose (CMC)) of the same compound?
Answer: 97 % of control

Question: And the T/C (dose: 400.0 mg/kg/injection, schedule: Q01DX001 (ip), vehicle: carboxymethylcellulose (CMC))?
Answer: 103 % of control

Question: Which T/C (dose: 1.5 mg/kg/injection, schedule: Q01DX009 (ip), vehicle: carboxymethylcellulose (CMC)) does the source give for `O=C(CN1CC1)NCc1ccc(CNC(=O)CN2CC2)cc1` here?
Answer: 111 % of control

Question: What about the T/C (dose: 6.0 mg/kg/injection, schedule: Q01DX009 (ip), vehicle: carboxymethylcellulose (CMC)) of the same compound?
Answer: 106 % of control

Question: What about the T/C (dose: 6.25 mg/kg/injection, schedule: Q01DX009 (ip), vehicle: carboxymethylcellulose (CMC)) of the same compound?
Answer: 118 % of control

Question: And the T/C (dose: 7.3 mg/kg/injection, schedule: Q01DX001 (ip), vehicle: carboxymethylcellulose (CMC))?
Answer: 115 % of control

Question: What about the T/C (dose: 11.0 mg/kg/injection, schedule: Q01DX001 (ip), vehicle: carboxymethylcellulose (CMC)) of the same compound?
Answer: 121 % of control

Question: And the T/C (dose: 11.1 mg/kg/injection, schedule: Q01DX009 (ip), vehicle: carboxymethylcellulose (CMC))?
Answer: 158 % of control

Question: What about the T/C (dose: 12.5 mg/kg/injection, schedule: Q01DX009 (ip), vehicle: carboxymethylcellulose (CMC)) of the same compound?
Answer: 183 % of control

Question: What about the T/C (dose: 16.6 mg/kg/injection, schedule: Q01DX009 (ip), vehicle: carboxymethylcellulose (CMC)) of the same compound?
Answer: 163 % of control

Question: What about the T/C (dose: 25.0 mg/kg/injection, schedule: Q01DX009 (ip), vehicle: carboxymethylcellulose (CMC)) of the same compound?
Answer: 153 % of control and 183 % of control

Question: What about the T/C (dose: 37.5 mg/kg/injection, schedule: Q01DX001 (ip), vehicle: carboxymethylcellulose (CMC)) of the same compound?
Answer: 155 % of control

Question: Which results are given for `CCOC(=O)C1CN(C2CCCCC2)CCC1=O` (centres undefined)?
Answer: T/C (dose: 18.75 mg/kg/injection, schedule: Q01DX009 (ip), vehicle: saline): 93 % of control; T/C (dose: 37.5 mg/kg/injection, schedule: Q01DX009 (ip), vehicle: saline): 92 % of control; T/C (dose: 37.5 mg/kg/injection, schedule: Q04DX003 (ip), vehicle: saline): 98 % of control; T/C (dose: 75.0 mg/kg/injection, schedule: Q01DX001 (ip), vehicle: saline): 102 % of control; T/C (dose: 75.0 mg/kg/injection, schedule: Q01DX009 (ip), vehicle: saline): 93 % of control; T/C (dose: 75.0 mg/kg/injection, schedule: Q04DX003 (ip), vehicle: saline): 100 % of control; T/C (dose: 150.0 mg/kg/injection, schedule: Q01DX001 (ip), vehicle: saline): 95 % of control; T/C (dose: 150.0 mg/kg/injection, schedule: Q04DX003 (ip), vehicle: saline): 94 % of control

Question: What does the source list for `O=C1C(Cl)=C(Cl)C(=O)C2=C1C1c3ccccc3C2c2ccccc21`?
Answer: T/C [6]: 86 % of control; T/C [7]: 94 % of control; T/C [8]: 89 % of control

Question: With `COc1ccc(C(C#N)CC(=O)c2ccc(OCc3ccccc3)c(OC)c2)cc1OC` (centres undefined) as the compound, how does the T/C (dose: 75.0 mg/kg/injection, schedule: Q01DX009 (ip), vehicle: other) read?
Answer: 88 % of control

Question: And the T/C [9]?
Answer: 90 % of control

Question: What about the T/C (dose: 150.0 mg/kg/injection, schedule: Q01DX009 (ip), vehicle: other) of the same compound?
Answer: 90 % of control

Question: And the T/C [10]?
Answer: 96 % of control

Question: And the T/C (dose: 300.0 mg/kg/injection, schedule: Q01DX009 (ip), vehicle: other)?
Answer: 95 % of control

Question: And the T/C (dose: 400.0 mg/kg/injection, schedule: Q04DX003 (ip), vehicle: saline)?
Answer: 94 % of control

Question: What about the T/C (dose: 600.0 mg/kg/injection, schedule: Q01DX009 (ip), vehicle: other) of the same compound?
Answer: 102 % of control

Question: Which results are given for `Cc1cc2oc(=O)cc(N3CCOCC3)c2c(=O)o1`?
Answer: T/C [11]: 117 % of control; T/C [12]: 114 % of control

Question: How did the T/C (dose: 100.0 mg/kg/injection, schedule: Q01DX001 (ip), vehicle: saline) turn out when `COc1ccc(OCCC(=O)O)cc1` was run?
Answer: 90 % of control

Question: What about the T/C (dose: 200.0 mg/kg/injection, schedule: Q01DX001 (ip), vehicle: saline) of the same compound?
Answer: 93 % of control

Question: `CC1CN=C(c2ccc([N+](=O)[O-])cc2)S1` (centres undefined) was tested. Which T/C (dose: 100.0 mg/kg/injection, schedule: Q01DX001 (ip), vehicle: Klucel (hydroxypropylcellulose) (HPC)) did it give?
Answer: 100 % of control

Question: And the T/C (dose: 200.0 mg/kg/injection, schedule: Q01DX001 (ip), vehicle: Klucel (hydroxypropylcellulose) (HPC))?
Answer: 95 % of control

Question: What about the T/C (dose: 400.0 mg/kg/injection, schedule: Q01DX001 (ip), vehicle: Klucel (hydroxypropylcellulose) (HPC)) of the same compound?
Answer: 94 % of control

Question: Which results are given for `Cc1nc2[nH]cnc(=S)c2[nH]1`?
Answer: T/C (dose: 100.0 mg/kg/injection, schedule: Q01DX001 (ip), vehicle: other): 107 % of control; T/C (dose: 200.0 mg/kg/injection, schedule: Q01DX001 (ip), vehicle: other): 103 % of control

Question: `CCOC(=O)[C@H]1CCC[C@@H](NC(=O)N(CCCl)N=O)C1` was tested. Which T/C (dose: 5.0 mg/kg/injection, schedule: Q01DX001 (ip), vehicle: other) did it give?
Answer: 108 % of control

Question: What about the T/C (dose: 10.0 mg/kg/injection, schedule: Q01DX001 (ip), vehicle: other) of the same compound?
Answer: 123 % of control

Question: What about the T/C (dose: 20.0 mg/kg/injection, schedule: Q01DX001 (ip), vehicle: other) of the same compound?
Answer: 194 % of control

Question: What about the T/C (dose: 31.0 mg/kg/injection, schedule: Q01DX001 (ip), vehicle: other) of the same compound?
Answer: 329 % of control

Question: What about the T/C (dose: 40.0 mg/kg/injection, schedule: Q01DX001 (ip), vehicle: other) of the same compound?
Answer: 305 % of control

Question: And the T/C (dose: 62.0 mg/kg/injection, schedule: Q01DX001 (ip), vehicle: other)?
Answer: 254 % of control

Question: For `CCOC(=O)C(=CNc1ccc(OC)cc1[N+](=O)[O-])C(=O)OCC`, which T/C (dose: 12.5 mg/kg/injection, schedule: Q01DX009 (ip), vehicle: saline with Tween-80) is on record?
Answer: 97 % of control

Question: What about the T/C (dose: 25.0 mg/kg/injection, schedule: Q01DX009 (ip), vehicle: saline with Tween-80) of the same compound?
Answer: 90 % of control

Question: What about the T/C [11] of the same compound?
Answer: 94 % of control and 90 % of control

Question: What about the T/C (dose: 100.0 mg/kg/injection, schedule: Q04DX002 (ip), vehicle: saline with Tween-80) of the same compound?
Answer: 95 % of control

Question: What about the T/C [12] of the same compound?
Answer: 105 % of control

Question: And the T/C (dose: 200.0 mg/kg/injection, schedule: Q04DX002 (ip), vehicle: saline with Tween-80)?
Answer: 88 % of control

Question: And the T/C (dose: 400.0 mg/kg/injection, schedule: Q04DX002 (ip), vehicle: saline with Tween-80)?
Answer: 92 % of control

Question: Which T/C [4] does the source give for `CCC(CC)(C1CCC(O)CC1)C1CCC(O)CC1` (centres undefined) here?
Answer: 93 % of control

Question: And the T/C [5]?
Answer: 91 % of control

Question: What about the T/C (dose: 300.0 mg/kg/injection, schedule: Q01DX001 (ip), vehicle: carboxymethylcellulose (CMC)) of the same compound?
Answer: 89 % of control

Question: Which results are given for `CNc1cnc(Cl)nc1Cl`?
Answer: T/C (dose: 50.0 mg/kg/injection, schedule: Q01DX001 (ip), vehicle: acetone): 98 % of control; T/C (dose: 100.0 mg/kg/injection, schedule: Q01DX001 (ip), vehicle: acetone): 93 % of control; T/C (dose: 200.0 mg/kg/injection, schedule: Q01DX001 (ip), vehicle: acetone): 97 % of control

Question: Which T/C (dose: 100.0 mg/kg/injection, schedule: Q01DX009 (ip), vehicle: Klucel (hydroxypropylcellulose) (HPC)) does the source give for `CCOC(=O)CCC1(CCC(=O)OCC)c2ccccc2-c2ccccc21` here?
Answer: 97 % of control

Question: And the T/C (dose: 200.0 mg/kg/injection, schedule: Q01DX009 (ip), vehicle: Klucel (hydroxypropylcellulose) (HPC))?
Answer: 100 % of control

Question: And the T/C (dose: 400.0 mg/kg/injection, schedule: Q01DX009 (ip), vehicle: Klucel (hydroxypropylcellulose) (HPC))?
Answer: 94 % of control

Question: How did the T/C [1] turn out when `CC(=O)C1=CCC2C3CC(C)=C4CC(O)CCC4(C)C3CCC12C` (centres undefined) was run?
Answer: 94 % of control

Question: What about the T/C [2] of the same compound?
Answer: 92 % of control

Question: And the T/C [3]?
Answer: 90 % of control

Question: Which results are given for `CCCCCCCCC(CCCCCCCC)CCC1CCCCC1`?
Answer: T/C (dose: 100.0 mg/kg/injection, schedule: Q01DX001 (ip), vehicle: saline + alcohol): 95 % of control; T/C (dose: 200.0 mg/kg/injection, schedule: Q01DX001 (ip), vehicle: saline + alcohol): 108 % of control; T/C (dose: 400.0 mg/kg/injection, schedule: Q01DX001 (ip), vehicle: saline + alcohol): 100 % of control

Question: How did the T/C [9] turn out when `COC1OC(CO)C(O)C(N)C1O` (centres undefined) was run?
Answer: 109 % of control

Question: And the T/C [10]?
Answer: 98 % of control

Question: For `CCOc1ncc([N+](=O)[O-])cn1`, which T/C [6] is on record?
Answer: 101 % of control

Question: And the T/C [7]?
Answer: 114 % of control

Question: And the T/C [8]?
Answer: 103 % of control

Question: `CCC1(C)OC(C)C(C)O1` (centres undefined) was tested. Which T/C (dose: 50.0 mg/kg/injection, schedule: Q01DX009 (ip), vehicle: saline) did it give?
Answer: 100 % of control

Question: And the T/C (dose: 100.0 mg/kg/injection, schedule: Q01DX009 (ip), vehicle: saline)?
Answer: 107 % of control

Question: What about the T/C (dose: 200.0 mg/kg/injection, schedule: Q01DX009 (ip), vehicle: saline) of the same compound?
Answer: 104 % of control
